Results: patent publication US20210205253A1, “Use Of Stearic Acid For Preventing Or Treating Pulmonary Fibrosis” (THE ASAN FOUNDATION, priority 2018, published 2021)

Key:
[1] = test system: p-Smad2/3 and Smad7 in MRC-5 cells; assay: p-Smad2/3 and Smad7 expression in fibroblasts; type: cell-based, human; conditions: 5 mM NAC pre-treatment 1 h, TGF-β1 1 h
Method: The present inventors pre-treated a human pulmonary fibroblast cell line MRC-5 with 40 μM stearic acid for 16 hours, treated the MRC-5 cells with TGF-β1 for 1 hour, and then examined the expression levels of p-Smad2/3 and Smad7 in order to elucidate the anti-fibrotic mechanism of stearic acid in human pulmonary fibroblasts (FIGS. 12A and 12B). Further, to investigate the effect of stearic acid on the production of reactive oxygen species (ROS), MRC-5 cells were pre-treated with 40 μM stearic acid for 16 hours, and cells treated with TGF-β1 for 1 hour were stained with DCF-DA and analyzed by FACS (FIG. 12C). Furthermore, MRC-5 cells were pre-treated with 5 mM N-acetylcysteine (NAC), which is an antioxidant, for 1 hour and treated with TGF-β1 for 1 hour, and then the expression of p-Smad2/3 was examined (FIG. 12D).

[2] = test system: human primary fibroblasts; assay: Combined treatment of stearic acid and nintedanib in human primary fibroblasts; type: cell-based
Method: The primary fibroblasts derived from the patients with idiopathic pulmonary fibrosis used in the following experiment were cultured for 7 to 10 days while cutting the lung tissue of the patient into 1×1 mm^2 slices, and then periodically exchanging a cell culture solution (Eagle's minimal essential medium; EMEM) supplemented with 100 unit/ml penicillin, 100 μg/ml streptomycin, and 10% fetal bovine serum (FBS) under conditions of 5% CO2 and 37° C., and cells of passage 2 to 5 were used for the experiment. To verify the anti-fibrotic effect by the combined treatment of stearic acid and nintedanib, which is another therapeutic agent for idiopathic pulmonary fibrosis, human primary fibroblasts were respectively or simultaneously treated with 5 ng/ml TGF-β, 40 μM stearic acid, and 1.5 or 2 μM nintedanib for 24 hours, and then the expression levels of collagen type 1 (COL-1) and α-SMA, which are markers of fibrosis, were measured, respectively.

[3] = test system: pulmonary fibroblasts; assay: Collagen 1 and α-SMA immunoblotting in pulmonary fibroblasts; type: cell-based, human; conditions: relative to control
Method: After epithelial cells and fibroblasts were aliquoted into 6-well plates at 2×10^4 cells/well and a stabilization time was imparted for 24 hours, and 15 hours after deficiency, cells were treated with stearic acid (40 uM/mL), TGF-β (5 ng/mL), and stearic acid (40 uM/mL)+TGF-β (5 ng/mL) in this order. After the cells were cultured in an incubator for 24 hours after the treatment, the next-step experiment was performed. After 24 hours of cell stimulation by the method of Example 1-3, the cells were washed twice with iced phosphate buffer saline (PBS), a protein lysate solution was put thereinto, the cells were scraped out and collected in a 1.5 ml EP tube, and then the cells were lysed in a grinder for 30 seconds. Next, centrifugation was performed at a speed of 14,000 rpm at 4° C. for 20 minutes, and the protein was quantified using the BCA analysis method. Thereafter, the protein sample was boiled at 95° C. for 10 minutes for the same amount of protein, and then the expression levels of collagen type 1 and α-SMA were measured by immunoblotting. After the expression level of the protein was confirmed, a significance test between samples was performed using a statistical program. […] The collagen 1/actin or α-SMA/actin indicated on the y-axis of FIGS. 4A and 4B means a value obtained by correcting the protein amount of collagen 1 or α-SMA with the amount of actin, which is an intracellular control protein. […] Further, referring to the test method of obtaining the results in FIG. 4, after pulmonary fibroblasts were treated with palmitic acid at various concentrations (10, 20, and 40 μM/mL), the levels of collagen 1 (collagen 1/actin; FIG. 6A) and α-SMA (α-SMA/actin; FIG. 6B), which are intracellular fibrosis markers, were measured, and shown as relative values to the control (CTL; medium only). […] 40 uM/mL stearic acid, 10 uM/mL palmitic acid, and 5 ng/mL TGF-β were used in the experiment, respectively. […] In addition, referring to the test method of obtaining the results in FIG. 7, the experiment was performed using oleic acid (OA) instead of palmitic acid, and the levels of collagen 1 (collagen 1/actin; FIG. 8A) and α-SMA (α-SMA/actin; FIG. 8B) were measured and shown as relative values to the control (CTL; medium only). 40 uM/mL stearic acid, 40 uM/mL oleic acid, and 5 ng/mL TGF-β were used in the experiment, respectively.

[4] = test system: human pulmonary fibroblasts (MRC-5); assay: Cell viability (MTT) of human pulmonary fibroblasts; type: cell-based; conditions: palmitic acid 10, 20 and 40 μM/mL alone
Method: (§1) After epithelial cells and fibroblasts were aliquoted into 6-well plates at 2×10^4 cells/well and a stabilization time was imparted for 24 hours, and 15 hours after deficiency, cells were treated with stearic acid (40 uM/mL), TGF-β (5 ng/mL), and stearic acid (40 uM/mL)+TGF-β (5 ng/mL) in this order. After the cells were cultured in an incubator for 24 hours after the treatment, the next-step experiment was performed.
(§2) After a 24-hour cell stimulation by the method in Example 1-3 was completed, the medium of epithelial cells and fibroblasts was replaced with a general culture medium, 10 μl of an MTT solution (20 mg/ml) was further added, and then the outside of the plate was wrapped with aluminum foil and cells were cultured in an incubator for 2 hours. […] After 2 hours, cell activation was measured at an absorbance value of 595 nm using an ELISA reader.
(§3) For this purpose, after each culture (BEGM(Lonza) in the case of MRC-5, and BMEM (ATCC) in the case of BEAS-2B) of human pulmonary fibroblasts (MRC-5; ATCC® CCL171™) and human pulmonary epithelial cells (BEAS-2B; ATCC® CRL9609™) was treated with stearic acid (40 uM/mL), TGF-β (5 ng/mL; Sigma), or stearic acid (40 uM/mL)+TGF-β (5 ng/mL) by the method described in Example 1-3 for 24 hours, cell viability was measured by the method in Example 1-4. […]

[5] = test system: human pulmonary epithelial cells (BEAS-2B); assay: Cell viability (MTT) of human pulmonary epithelial cells; type: cell-based; conditions: palmitic acid 10, 20 and 40 μM/mL alone
Method: as §1, §2, §3

[6] = test system: human primary fibroblasts; assay: Combined treatment of stearic acid and pirfenidone in human primary fibroblasts (western blotting); type: cell-based; conditions: TGF-β single treatment group set to 100%; corrected with actin
Method: The primary fibroblasts derived from the patients with idiopathic pulmonary fibrosis used in the following experiment were cultured for 7 to 10 days while cutting the lung tissue of the patient into 1×1 mm^2 slices, and then periodically exchanging a cell culture solution (Eagle's minimal essential medium; EMEM) supplemented with 100 unit/ml penicillin, 100 μg/ml streptomycin, and 10% fetal bovine serum (FBS) under conditions of 5% CO2 and 37° C., and cells of passage 2 to 5 were used for the experiment.
To verify the anti-fibrotic effect by the combined treatment of stearic acid and pirfenidone, which is a therapeutic agent for idiopathic pulmonary fibrosis, the human primary fibroblasts isolated by the above-described method were respectively or simultaneously treated with 5 ng/ml TGF-β, 40 μM stearic acid, and 400 or 800 μM pirfenidone for 24 hours, and then the expression levels of collagen type 1 (COL-1) and α-SMA, which are markers of fibrosis, were measured by western blotting, and the inhibitory rate was quantitatively analyzed by correcting the amount of each protein with the amount of actin, which is an intracellular control protein.

[7] = test system: human pulmonary epithelial cell line Beas-2B; assay: Fibronectin (EMT marker) expression under combined treatment in epithelial cells; type: cell-based; conditions: TGF-β 5 ng/ml; pirfenidone 800 μM, stearic acid 40 μM
Method: FIG. 15 illustrates, as the results of confirming the anti-fibrotic effect according to the combined treatment with stearic acid and pirfenidone in a human pulmonary epithelial cell line BEAS-2B, the results of treating the cells with TGF-β (5 ng/ml), stearic acid (40 μM), and/or pirfenidone (800 μM), and then measuring the expression of fibronectin with a marker of EMT, which is one of the pulmonary fibrosis indices, and quantitatively analyzing the inhibitory efficiency thereof (TGF: TGF-β single treatment group, TGF+PIR: TGF-β and pirfenidone treatment group, TGF+Combi: TGF-β and pirfenidone+stearic acid combined treatment group).
In addition to the results of Example 3-1-1, the present inventors tried to analyze the degree of epithelial to mesenchymal transition (EMT), which is one of the indices for pulmonary fibrosis, during the combined treatment with stearic acid and pirfenidone by treating a human pulmonary epithelial cell line Beas-2B with 800 μM, and for this purpose, the expression level of fibronectin, which is one of the EMT markers, was measured.

[8] = test system: pulmonary fibrosis induced by bleomycin; assay: Combined stearic acid and pirfenidone in bleomycin pulmonary fibrosis animal model; type: in vivo, mice (C57BL/6J); conditions: 3 mg/kg stearic acid, 300 mg/kg pirfenidone oral once every 2 days for 2 weeks
Method: In addition to the results of the above examples, the present inventors sought to confirm the anti-fibrotic effect by the combined treatment of stearic acid and pirfenidone in a pulmonary fibrosis animal model. For this purpose, 8-week-old mice (C57BL/6J) were anesthetized with 50 mg/kg […] and 5 mg/kg Rompun, followed by injection of bleomycin and saline into the trachea. From 7 days after administration of bleomycin, 3 mg/kg stearic acid, 300 mg/kg pirfenidone or the two drugs were orally administered at the same time once every 2 days for 2 weeks, and changes in mouse body weight were measured up to 21 days after administration of bleomycin.

[9] = 1.5 μM nintedanib single treatment versus TGF single treatment
[10] = 2 μM nintedanib single treatment versus TGF single treatment
[11] = palmitic acid 10, 20 and 40 μM/mL alone

Structure (SMILES): CC(=O)N[C@@H](CS)C(=O)O [NAC, N-acetylcysteine, reference compound]
- expression of p-Smad2/3 induced by TGF-β1 [1]: inhibited

Structure (SMILES): COC(=O)c1ccc2c(c1)NC(=O)/C2=C(\Nc1ccc(N(C)C(=O)CN2CCN(C)CC2)cc1)c1ccccc1 [nintedanib]
- expression level of COL-1 [2, 9]: no change
- expression level of α-SMA [2, 9]: no change
- expression level of COL-1 [2, 10]: no change
- expression level of α-SMA [2, 10]: no change
- inhibition at 2 µM ([2]; Homo sapiens, Col1, 2 μM nintedanib, 40 μM stearic acid, COL-1 expression caused by TGF assumed 100%, read-out: inhibitory rate against COL-1): 110%

Structure (SMILES): CCCCCCCC/C=C\CCCCCCCC(=O)O [oleic acid, reference compound]
- collagen 1/actin ([3]; oleic acid 40 uM/mL alone): activated pulmonary fibrosis at the same level as in TGF-β
- α-SMA/actin ([3]; oleic acid 40 uM/mL alone): activated pulmonary fibrosis at the same level as in TGF-β

Structure (SMILES): CCCCCCCCCCCCCCCC(=O)O [palmitic acid, reference compound]
- collagen 1/actin [3, 11]: increased at levels similar to that in the case where pulmonary fibroblasts were treated with only TGF-β
- α-SMA/actin [3, 11]: increased at levels similar to that in the case where pulmonary fibroblasts were treated with only TGF-β
- cell viability of pulmonary fibroblasts [4]: increased according to the concentration
- cell viability of pulmonary epithelial cells [5]: decreased according to the treatment concentration

Structure (SMILES): Cc1ccc(=O)n(-c2ccccc2)c1 [pirfenidone]
- inhibitory rate of COL-1 [6]: 157%
- expression of fibronectin, quantitative analysis of inhibitory efficiency [7]: about 120%
- hydroxyproline inhibition, quantitative analysis [8]: 105%
- level of hydroxyproline ([8]; versus bleomycin group): partially reduced
- body weight ([8]; up to day 21 after bleomycin): further reduced
